pIC50: −log10 of the molar value. Read-outs that look alike come from different tables or passages of the source.
Columns and labels:
[1] = system: D. discoideum development; assay: D. discoideum development assay; type: cell-based, Dictyostelium discoideum
Experimental: Wild type (A×2) D. discoideum cells were grown in HL5 shaking culture for two days prior to development assay. Cells were washed in phosphate buffer (KK2; 20 mM Potassium phosphate buffer, pH 6.1), and 1×10^7 cells were spread onto nitrocellulose filters (Millipore, Cork). Absorbent pads (Millipore, Cork), divided into quarters, were placed in 2 ml culture dishes and soaked with 0.5 ml KK2 containing the cannabinoids at 20 μM. 1 mM Valproic acid was used as a positive control while KK2 containing 1% DMSO was used as a solvent only control. Nitrocellulose filters containing cells were quartered and place upon absorbent pads and maintained in a humid environment at 22° C. for 24 h. Fruiting body morphology was recorded using a dissection microscope and camera.

[2] = system: PTZ-induced generalised seizures; assay: Acute PTZ-induced model of generalised seizure; type: in vivo, rat
Experimental: Adult male Wistar Kyoto rats were used in the acute PTZ model of seizure (>P24, 70-110 g). Animals were housed five per cage in a heat regulated room (21° C.) on a 12:12 h day/night cycle (lights on 0800) in 50% humidity and given ad libitum access to standard laboratory chow (PCD Mod C, Special Diet Services, Wiltham, UK) and water. All procedures were undertaken during white light hours.
(§1) A PTZ (Sigma-Aldrich, Poole, UK) stock solution was made in 0.9% w/v NaCl for the experimental procedure.
PTZ antagonises GABA inhibition via binding to the t-butyl-bicycl-phosphorothionate site of GABAA receptors. Moreover, this chemically-induced model can be indicative of effects against absence seizures. PTZ (90 mg/kg) was used to induce seizures in adult male Wistar rats (n=15 per group) with experiment dose randomised using a Latin square design. Animals were placed in their 6 L Perspex tanks and allowed to acclimatise to their environment for 10 min, before receiving one of the cannabinoid doses (see Table 5) in vehicle, or volume-matched dose of vehicle alone to serve as a negative control. 60 min after test compound or vehicle administration, animals were injected with PTZ (90 mg/kg, i.p.) to induce seizures and animal behaviour was recorded for 30 min.
Videos of PTZ-induced seizures were scored offline with a standard seizure severity scale appropriate for generalised seizures (Table 6).
Videos of seizure behaviour generated from the custom built observational system were scored offline according to seizure scales appropriate for PTZ model (Table 6) using Observer Video-Pro software (Noldus, Wageningen, The Netherlands). For the PTZ model of seizure, intra- and inter-observer agreements of behaviour scoring were assessed using the reliability analysis function of the observer Video-Pro software: 1 s tolerance window; Cohen's Kappa coefficient≥0.95.
Specific markers of seizure behaviour and development were assessed and compared between vehicle control and drug groups. The latency (s) to seizure onset and the percentage of animals that developed tonic-clonic seizures was noted (see Table 6). In addition, the maximum seizure severity and the percentage mortality in each group were determined for the acute PTZ model of generalised seizure.
The effect of drug on latency to seizure onset and maximum seizure severity were assessed using Krustal-Wallis with post-hoc Mann-Whitney U-tests. Drug effects on the percentage of animals that developed tonic-clonic seizures and percentage mortality were assessed using Chi-squared with post-hoc Fisher exact tests. In all cases, P≤0.05 was considered significant.

[3] = system: D. discoideum cell growth; assay: D. discoideum growth assay; type: cell-based, Dictyostelium discoideum
Experimental: Wild type (A×2) D. discoideum cells were grown in shaking culture (in HL5 medium) for two days prior to growth assays. Cells (9900 in 495 μl of media) were added to each well of a 24 well plate and 5 μl of cannabinoid in DMSO (or DMSO only) was added to each well to achieve each described concentration (1% final DMSO concentration), and cells were maintained at 22° C. Cells were counted at 72 hours, and then every 24 hours. Quadruplicate repeats were used for each concentration.

[4] = system: D. discoideum growth upon R. planticola bacterial plates; assay: Bacterial plate screen; type: cell-based, Dictyostelium discoideum; conditions: CBDA 12.3 μM, CBD 16.7 μM; 4 days
Experimental: Heat killed (75° C. for 30 minutes) R. planticola was spread onto the plates and ˜50 wild-type A×2 cells were added and left to grow at 22° C. Plates were checked regularly for colonies.

[5] = Formulation analysis (decarboxylation of CBDA to CBD); type: physicochemical; conditions: 2:1:17 vehicle of ethanol, cremophor and saline
Source text: as §1
Formulation analysis was undertaken to determine whether CBDA decarboxylated to CBD because of temperature and/or the excipients in the formulation. […] Therefore, CBDA was not modified during formulation, and a 2:1:17 ratio can be used in future investigations for this phytocannabinoid.

[6] = Toxicokinetics from toxicological studies in dogs, daily oral (gavage) administration; type: in vivo, dog; conditions: dog, plasma, po, 100 mg/kg, Day 1, mean; for AUC0-t: read-out: AUC0-t; for Cmax: read-out: Cmax
Experimental: Samples were taken from the jugular vein into lithium heparin. Samples were mixed gently by hand then continuously for at least 2 minutes on automatic mixer and placed in a Kryorack until centrifugation, which was carried out at approximately 4° C. as soon as practicable. The resultant plasma was separated under low light conditions, transferred to uniquely labelled clear glass vials, placed in light proof boxes and frozen immediately at <−50° C.

[7] = female, comparative Table 11, females
[8] = male, comparative Table 10, males

SMILES | effect on development (fruiting body morphology) ([1]; 1 mM, positive control, 24 h) | effect on development (fruiting body morphology) ([1]; 20 μM, 24 h on nitrocellulose filter) | effect on percentage mortality ([2]; 100 mg/kg CBD (P≤0.01), 100 mg/kg CBDA (P=0.0656), CBD/CBDA ratio (P=0.0656)) | effect on latency to seizure onset ([2]; 100 mg/kg CBD (P≤0.05), CBD/CBDA 9:1 (P≤0.05), CBDA 100 mg/kg (P=0.0929)) | median score for the maximum seizure severity ([2]; 100 mg/kg, PTZ 90 mg/kg i.p. 60 min after compound, scale of Table 6, n=15) | effect on incidence of tonic-clonic seizures ([2]; 100 mg/kg, P≤0.1) | effect on seizure severity vs vehicle control ([2]; CBDA 100 mg/kg, CBD/CBDA 9:1 ratio (90/10 mg/kg), P≤0.05) | pIC50 ([3]; Dictyostelium discoideum, 168 h, read-out: growth inhibitory constant (IC50)) | concentration blocking growth ([3]; growth over one week) [µM] | concentration significantly inhibiting cell growth (P<0.05) ([3]; growth over one week) [µM] | cell survival (colony number) compared to control (solvent only) [4] | conversion of CBDA to CBD during formulation [5] | AUC0-t [6, 7] [µg·h/mL] | Cmax [6, 7] [ng/mL] | AUC0-t [6, 8] [µg·h/mL] | Cmax [6, 8] [ng/mL]
CCCC(CCC)C(=O)O [valproic acid] | able to aggregate but unable to undergo development to form fruiting bodies |  |  |  |  |  |  |  |  |  |  |  |  |  |  | 
C=C(C)[C@@H]1CCC(C)=C[C@H]1c1c(O)cc(CCCCC)c(C(=O)O)c1O [CBDA, Cannabidiolic acid] |  | able to aggregate and develop to form mature fruiting bodies | trend towards a significant reduction | trend towards increasing the latency to seizure onset | 3 | trend towards a reduction in tonic-clonic seizures | significant anti-convulsant effects | 6.52 | 20 | 0.08 | No difference in colony number | not converted to CBD during formulation | 179 | 38600 | 80.5 | 24900

From US11684598B2, “Use of cannabinoids in the treatment of epilepsy” (priority 2015, dated 2023)
